SMILES strings stand for the structures.

The test system of experiment [1] is PGE, PGF and PGD (anti-aggregatory-prostaglandin generating enzymes). As to the kind of experiment: selectivity: amount of PGE, PGF and PGD produced by homogenised horse platelets. It is filed as biochemical. The following applies: the greater the selectivity, the more anti-aggregating prostaglandins are produced. Also on record: key: O indicates no selectivity; + low selectivity; ++ medium selectivity. The procedure:
(§1) Horse platelets were prepared from whole horse blood by differential centrifugation. Approximately 10^6 platelets were homogenised in 1 ml 100 mM Tris buffer pH 7.4. Various concentrations of active compound were added and the reaction sets incubated for 5 minutes at ambient temperature. To each tube was added 20 nM of arachidonic acid containing 10^6 DPM of labelled arachidonic acid and the tubes incubated for 3 minutes at 37° C. in a shaking water bath. After incubation the radioactive products were extracted from the acidified aqueous phase with ethyl acetate and after concentration resolved by thin layer chromotography on silica gel with chloroform/methanol/acetic acid/water (90:8:1:0.8) as a developing solvent. The amount of thromboxane produced was measured by scraping the radioactive zone corresponding to thromboxane B2 and estimating the radioactivity in a liquid scintillation counter.
The selectivity of the active compounds was measured in a similar manner to that described above and the amount of PGE, PGF and PGD produced was determined. The greater the selectivity, the more of the anti-aggregating prostaglandins are produced.
The ED50 and Selectivity results are shown in Table A in which O indicates no selectivity; + low selectivity and ++ medium selectivity.

Another experiment addresses T1, TXA2 synthetase (Equus caballus, UniProt A0A9L0T8T9).
T1 construct: arachidonic acid substrate, thromboxane B2 measured by radio-TLC
T1 sequence (A0A9L0T8T9 2-534): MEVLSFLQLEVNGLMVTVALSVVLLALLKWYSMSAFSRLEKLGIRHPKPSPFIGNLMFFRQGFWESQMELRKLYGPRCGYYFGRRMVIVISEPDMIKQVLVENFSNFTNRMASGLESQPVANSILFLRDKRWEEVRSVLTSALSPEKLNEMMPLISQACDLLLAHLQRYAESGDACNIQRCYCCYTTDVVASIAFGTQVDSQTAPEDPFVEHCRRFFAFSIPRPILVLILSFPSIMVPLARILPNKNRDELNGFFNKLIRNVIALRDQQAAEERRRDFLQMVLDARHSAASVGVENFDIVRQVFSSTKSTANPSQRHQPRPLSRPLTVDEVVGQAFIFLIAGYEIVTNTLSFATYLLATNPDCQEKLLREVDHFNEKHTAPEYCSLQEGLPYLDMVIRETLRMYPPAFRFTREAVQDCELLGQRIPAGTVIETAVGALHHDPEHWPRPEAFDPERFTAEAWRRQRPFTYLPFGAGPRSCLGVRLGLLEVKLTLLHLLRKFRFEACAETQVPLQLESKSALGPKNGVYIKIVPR
T1 sequence (F7BQR7 24-599 partner): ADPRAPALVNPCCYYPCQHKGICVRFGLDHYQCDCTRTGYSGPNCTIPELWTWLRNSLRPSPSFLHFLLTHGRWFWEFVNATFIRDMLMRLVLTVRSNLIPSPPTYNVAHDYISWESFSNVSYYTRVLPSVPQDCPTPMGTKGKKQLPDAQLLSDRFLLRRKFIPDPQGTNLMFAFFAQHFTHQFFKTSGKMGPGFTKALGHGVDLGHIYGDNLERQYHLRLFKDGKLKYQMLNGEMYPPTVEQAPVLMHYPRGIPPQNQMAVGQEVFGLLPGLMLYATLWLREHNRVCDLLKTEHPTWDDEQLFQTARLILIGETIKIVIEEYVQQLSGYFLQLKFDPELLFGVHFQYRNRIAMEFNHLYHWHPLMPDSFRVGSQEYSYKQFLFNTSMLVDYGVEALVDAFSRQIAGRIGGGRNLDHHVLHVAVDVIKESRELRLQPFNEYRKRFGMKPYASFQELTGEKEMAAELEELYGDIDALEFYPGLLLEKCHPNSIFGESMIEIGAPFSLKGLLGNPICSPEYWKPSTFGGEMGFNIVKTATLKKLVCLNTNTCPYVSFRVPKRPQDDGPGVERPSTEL
As to the kind of experiment: thromboxane production from labelled arachidonic acid by homogenised horse platelets (concentration to reduce the enzyme activity by 50%). Conditions: horse platelet homogenate, pH 7.4, 5 min preincubation, 3 min at 37° C. with arachidonic acid, read-out: ED50 (the source's name) (converted). It is filed as biochemical. How it is done: as §1
The concentration of active compound to reduce the enzyme activity by 50% (ED50) was established.

Another experiment concerns platelet aggregation. In words: inhibition of platelet aggregation in vivo.
The subject of the next experiment is platelet clumps. As to the kind of experiment: disaggregation of platelet clumps.
Experiment [2] concerns enzymic conversion of the endoperoxides (PGG2 and PGH2) to thromboxane A2. The following applies: platelet microsomes; Moncada et al., Prostaglandins, 13/4, 611-618, 1977; cited from earlier work.
A further experiment concerns serum cholesterol. The following applies: U.K. Pat. No. 1 364 312; Biochem. Pharmacol. 24, 1902-1903, 1975; cited from earlier work.

In the case of `Cc1cc(C)c(Cn2ccnc2)c(C)c1` [1-(2,4,6-Trimethylbenzyl)imidazole, 1-(2,4,6-trimethylbenzyl)imidazole], the Selectivity entry in experiment [1] is recorded as “++”. In addition, on TXA2 synthetase, the IC50 is 17 µM.
For `Cc1ccc(Cn2ccnc2)cc1C` [1-(3,4-Dimethylbenzyl)imidazole, 1-(3,4-dimethylbenzyl)imidazole], the “inhibiting platelet aggregation in vivo” value in the experiment on platelet aggregation is on record as “capable of inhibiting platelet aggregation in vivo”. Also, in the experiment with platelet clumps, the disaggregating platelet clumps result was “capable of disaggregating platelet clumps”. For the same compound, in experiment [1], the Selectivity entry is “++”. In addition, the IC50 at TXA2 synthetase is 32.2 µM.
On to `Clc1ccc(C=CCn2ccnc2)c(Cl)c1` [1-[3-(2,4-dichlorophenyl)prop-2-enyl]imidazole], for which the Selectivity result in experiment [1] was “+”. For the same compound, the IC50 on TXA2 synthetase was 16.2 µM.
The corresponding values for `Clc1cccc(Cl)c1C=CCn1ccnc1` [1-[3-(2,6-dichlorophenyl)prop-2-enyl]imidazole] are “+” and 3.95 µM.
As to `Cn1ccnc1` [1-methylimidazole], the “inhibition of the enzymic conversion of PGG2 and PGH2 to thromboxane A2” value in experiment [2] is “some degree of inhibition”.
On to `CCCCCCCCCCCCn1ccnc1` [1-n-dodecylimidazole], for which the “lowering serum cholesterol levels” value in the experiment on serum cholesterol is on record as “capable of lowering serum cholesterol levels”.
`c1c[nH]cn1` [Imidazole]: in experiment [2], the “inhibition of the enzymic conversion of PGG2 and PGH2 to thromboxane A2” value was “some degree of inhibition”.

These data come from US4405634A, “Imidazole derivatives for treating myocardial infarction” (Burroughs Wellcome Co., priority 1977, dated 1983).
